Data taken from US20110020269A1, “METHODS AND COMPOSITIONS FOR MODIFYING T CELL IMMUNE RESPONSES AND INFLAMMATION” (Beth Israel Deaconess Medical Center, Inc., priority 2007, published 2011).

What was measured:
new onset T1DM NOD mice = test: Restoration of euglycemia in new onset diabetic NOD mice; format: in vivo, mouse; settings: NOD-sp hosts; treatment 28 days
Description: We tested the efficacy of a 14- or 28-day course of Power Mix (RPM+IL-2/Fc+mIL-15/Fc) in new onset (>10 days) T1DM NOD mice whose repeated blood glucose levels ranged from 300 to 450 mg/dl. All non-treated diabetic NOD mice remained hyperglycemic without spontaneous remissions (Table 1, group A) and most died within 7 weeks despite insulin treatment (data not shown). In contrast, euglycemia was achieved within 5-7 weeks and maintained throughout a follow up period of over 300 days in 55 of 60 diabetic NOD mice treated with the RPM+IL-2/Fc+mIL-15/Fc regimen (Table 1 groups B and C). By comparison, remissions were less frequent (Table 1, Groups D-F) and delayed if elements of the treatment mix were eliminated.
To determine whether the presence of the T cell regulatory-enriched CD25+ T cell population is crucial to the beneficial therapeutic effects of Power Mix, prior to administration, we treated new onset diabetic NOD mice with an anti-CD25 mAb regimen known to delete CD4+CD25+ T cells (Zheng et al., Adv. Exp. Med. Biol., 520:87-95, 2003; Sanchez-Fueyo et al., Nat. Immunol., 4:1093-1101, 2003). Seven days after the initiation of anti-CD25 mAb treatment, these CD25+ T cell depleted mice received regimen treatment for 28 days (Table 1, Group G). […]
Blood glucose levels of NOD mice were monitored twice weekly with the Accu-Check blood glucose monitor system (Roche, Indianapolis, Ind.). […]

[1] = subcutaneous injection of 25 mg twice a week; cited from earlier work

Molecule | Restored to Normoglycemia (#/total treated) (new onset T1DM NOD mice) | Time to peak blood levels (average) [1]
CO[C@H]1C[C@@H]2CC[C@@H](C)[C@@](O)(O2)C(=O)C(=O)N2CCCC[C@H]2C(=O)O[C@H]([C@H](C)C[C@@H]2CC[C@@H](O)[C@H](OC)C2)CC(=O)[C@H](C)/C=C(\C)[C@@H](O)[C@@H](OC)C(=O)[C@H](C)C[C@H](C)/C=C/C=C/C=C/1C [RPM, rapamycin] | 5/19 | –
Etanercept | – | 72 h
